Experimental data from patent US6949250B2, “Selective algaecides for control of cyanochloronta” (The United States of America as represented by the …, priority 2002, dated 2005).
Converted amounts (≈) assume the structure as drawn.

Assays:
[1] = test system: Oscillatoria perornata; test: Rapid bioassay screening for selective algicides (LOEC, LCIC); assay type: cell-based; conditions: rapid screening; for MIC / minimal effective concentration: Planktothrix perornata; for MIC: read-out: LCIC (lowest-complete-inhibition concentration), Oscillatoria perornata; for minimal effective concentration: read-out: LOEC (lowest-observed-effect concentration), Oscillatoria perornata
From the text: (§1) These were screened in the laboratory by the method of Schrader et al. (K. K. Schrader, M. Q. de Regt, C. S. Tucker and S. O. Duke, A rapid bioassay for selective algicides. Weed Technol. (1997), vol. 11, pp. 767-774) for algicidal activity.
(§2) The anthraquinone derivatives were screened for selective toxicity towards Oscillatoria perornata, previously isolated from a Mississippi catfish pond, using the method of Schrader et al. (1997). The green alga Selenastrum capricornutum (obtained from the United States Environmental Protection Agency, Corvallis, Oreg.) was used as the representative green algal species in the bioassay since it is a common species found in southeastern United States catfish ponds. Absorbance readings were graphed, and graphs were used to determine the LOEC (lowest-observed-effect concentration) and the LCIC (lowest-complete-inhibition concentration) for each anthraquinone analog. In addition, a 96-hour 50% inhibition concentration (IC50) was determined for DNA1-19-1 and DNA2-59-1 by using the method described by Schrader et al. (1998b). Stock solutions of DNA1-19-1 and DNA2-59-1 were prepared so that final concentrations screened for 96-hour IC50 determinations were as follows: 1) 0, 0.01, 0.033, 0.1, 0.333, 1.0, 3.3, and 10.0 μM DNA1-19-1 for both O. perornata and S. capricornutum; 2) 0, 0.003, 0.01, 0.033, 0.1, 0.333, 1.0, and 3.333 μM DNA2-59-1 for O. perornata; and 3) 0, 0.1, 0.333, 1.0, 3.333, 10.0, 33.333, and 100.0 μM DNA2-59-1 for S. capricornutum. Estimation of the IC50 was determined by plotting 96-hour absorbance readings against logarithmic dilution values of the anthraquinone analogs. The screening results of the anthraquinone derivatives and commercially available analogs of anthraquinone are presented in Tables 1 and 2, respectively. The results in Table 1 reveal that DNA1-19-1 and DNA2-59-1 are the most promising analogs since these two compounds had the lowest LOEC and LCIC values for O. perornata (10 nM and 100 nM, respectively). Based upon IC50 results in Table 3, DNA2-59-1 appears to be more toxic and selective towards O. perornata than DNA1-19-1.
as §2, with “(A rapid bioassay for selective algicides. Weed Technol. (1997), vol. 11, pp. 767-774).” for “(1997).”, “(K. K. Schradar, M. Q. de Regt, P. D. Tidwell, C. S. Tucker and S. O. Duke, Selective growth inhibition of the musty-odor producing cyanobacterium Oscillatoria cf. chalybea by natural compounds. Bull. Environ. Contam. Toxicol. (1998a), vol.60, pp. 651-658).” for “(1998b).”, “The screening results of the anthraquinone derivatives and commercially available analogs of anthraquinone are presented in Tables 1 and 2, respectively. The results in Table 1 reveal that DNA1-19-1 and DNA2-59-1 are the most promising analogs since these two compounds had the lowest LOEC and LCIC values for O. perornata (10 nM and 100 nM, respectively). Based upon IC50 results in Table 3, DNA2-59-1 appears to be more toxic and selective towards O. perornata than DNA1-19-1.” left out

[2] = test system: Selenastrum capricornutum; test: as above; assay type: cell-based; conditions: rapid screening; for MIC / minimal effective concentration: Selenastrum capricornutum; for MIC: read-out: LCIC (lowest-complete-inhibition concentration), Selenastrum capricornutum; for minimal effective concentration: read-out: LOEC (lowest-observed-effect concentration), Selenastrum capricornutum
From the text: as §1, §2
as §2, with “(A rapid bioassay for selective algicides. Weed Technol. (1997), vol. 11, pp. 767-774).” for “(1997).”, “(K. K. Schradar, M. Q. de Regt, P. D. Tidwell, C. S. Tucker and S. O. Duke, Selective growth inhibition of the musty-odor producing cyanobacterium Oscillatoria cf. chalybea by natural compounds. Bull. Environ. Contam. Toxicol. (1998a), vol.60, pp. 651-658).” for “(1998b).”, “The screening results of the anthraquinone derivatives and commercially available analogs of anthraquinone are presented in Tables 1 and 2, respectively. The results in Table 1 reveal that DNA1-19-1 and DNA2-59-1 are the most promising analogs since these two compounds had the lowest LOEC and LCIC values for O. perornata (10 nM and 100 nM, respectively). Based upon IC50 results in Table 3, DNA2-59-1 appears to be more toxic and selective towards O. perornata than DNA1-19-1.” left out

| SMILES | MIC [1] [µM] | minimal effective concentration [1] [µM] | MIC [2] [µM] | minimal effective concentration [2] [µM] | LCIC (lowest-complete-inhibition concentration), Oscillatoria perornata [1] | LOEC (lowest-observed-effect concentration), Oscillatoria perornata [1] | LCIC (lowest-complete-inhibition concentration), Selenastrum capricornutum [2] | LOEC (lowest-observed-effect concentration), Selenastrum capricornutum [2] |
| --- | --- | --- | --- | --- | --- | --- | --- | --- |
| COCCOCCOCCOc1cccc2c1C(=O)c1ccccc1C2=O [DNA3-11-1, 1-[2-[2-(2-Methoxyethoxy)ethoxy]ethoxy]-9,10-anthraquinone] | 10 (≈ 3.7 µg/mL) | 10 | > 100 | > 100 | – | – | – | – |
| COCCOc1cccc2c1C(=O)c1ccccc1C2=O [DNA3-13-1, 1-(2-Methoxyethoxy)-9,10-anthraquinone] | 10 (≈ 2.82 µg/mL) | 10 | > 100 | 0.01 | – | – | – | – |
| O=C1c2ccccc2C(=O)c2c(OCCOCCOCCO)cccc21 [DNA3-15-1, 1-[2-[2-(2-Hydroxyethoxy)ethoxy]ethoxy]-9,10-anthraquinone] | 10 (≈ 3.56 µg/mL) | 10 | > 100 | 0.01 | – | – | – | – |
| CCNCc1ccc2c(c1)C(=O)c1ccccc1C2=O.O=P(O)(O)O [DNA3-17-1, 2-[Methylamino-N-(ethyl)]-9,10-anthraquinone monophosphate] | – | – | – | – | 1,000 nM | 1,000 nM | 10,000 nM | 10,000 nM |
| CNCc1ccc2c(c1)C(=O)c1ccccc1C2=O.O=P(O)(O)O [DNA3-19-1, 2-[Methylamino-N-(methyl)]-9,10-anthraquinone monophosphate] | – | – | – | – | 1,000 nM | 1,000 nM | 10,000 nM | 10,000 nM |
| CCCNCc1ccc2c(c1)C(=O)c1ccccc1C2=O.O=P(O)(O)O [DNA3-31-1, 2-[Methylamino-N-(propyl)]-9,10-anthraquinone monophosphate] | – | – | – | – | 1,000 nM | 1,000 nM | 10,000 nM | 10,000 nM |
| CC(C)(C)NCc1ccc2c(c1)C(=O)c1ccccc1C2=O.O=P(O)(O)O [DNA3-33-1, 2-[Methylamino-N-(1′1′-dimethylethyl)]-9,10-anthraquinone monophosphate] | – | – | – | – | 1,000 nM | 1,000 nM | 10,000 nM | 1,000 nM |
| O=C1c2ccccc2C(=O)c2cc(CNC3CC3)ccc21.O=P(O)(O)O [DNA3-35-1, 2-[Methylamino-N-(cyclopropyl)]-9,10-anthraquinone monophosphate] | – | – | – | – | 1,000 nM | 1,000 nM | 100,000 nM | 10,000 nM |
| O=C1c2ccccc2C(=O)c2c(OCCOCCOCCOCCOCCO)cccc21 [DNA3-49-1, 1-[2-[2-[2-[2-(2-Hydroxyethoxy)ethoxy]ethoxy]ethoxy]ethoxy]-9,10-anthraquinone] | 10 (≈ 4.44 µg/mL) | 1 | > 100 | > 100 | – | – | – | – |
| O=C1c2ccccc2C(=O)c2cc(OCCOCCOCCOCCOCCO)ccc21 [DNA3-51-1, 2-[2-[2-[2-[2-(2-Hydroxyethoxy)ethoxy]ethoxy]ethoxy]ethoxy]-9,10-anthraquinone] | 100 (≈ 44.4 µg/mL) | 0.1 | > 100 | > 100 | – | – | – | – |
| COCCOCCOCCOCCOc1cccc2c1C(=O)c1ccccc1C2=O [DNA3-53-1, 1-[2-[2-[2-(2-Methoxyethoxy)ethoxy]ethoxy]ethoxy]-9,10-anthraquinone] | 100 (≈ 41.4 µg/mL) | 10 | > 100 | 100 | – | – | – | – |
